Assay results from patent publication US6841362B1, “Melanoma differentiation associated gene-7 promoter and uses thereof” (The Trustees of Columbia University in the City of New York, priority 2000, dated 2005).

Legend:
[1] = test system: FL-mda-7 promoter; assay: FL-mda-7 promoter luciferase reporter assay, transient transfection; format: cell-based, human; settings: HO-1 and MeWo cells, 48 hr treatment, relative to uninduced; IFN-β 2000 units/ml, MEZ 10 ng/ml
Protocol: The effect of differentiation inducer drug treatment on full length mda-7 promoter activity. Fold induction of the FL-mda-7 promoter relative to the pGL3-Basic plasmid with or without differentiation inducer drug treatment in HO-1 (FIG. 1A) or MeWo (FIG. 1B) human melanoma cells. Luciferase assays were performed as previously described (Gopalkrishnan et al., 1999). In brief, the promoter-containing plasmids were transiently transfected into the different cell types using Superfect^R (Qiagen) according to the manufacturer's protocol. The cells were treated with differentiation inducers (IFN-β, 2000 units/ml; MEZ, 10 ng/ml; or IFN-β+MEZ, 2000 units/ml+10 ng/ml) for 48 h following transfection and assayed for luciferase activity using the Luc+Assat Kit (Promega). The SV40-p-Galactosidase plasmid was co-transfected with the luciferase constructs and used to normalize for variations in transfection efficiencies between experiments. […]
The presumptive promoter fragment was assayed for promoter activity using a heterologous gene reporter system (pGL3-Basic, luciferase assay system, Promega). […] The transfection efficiency was determined by cotransfection with RSV-β-galactosidase (Tropics β-Gal assay kit) and the relative luciferase activity was computed after correction for variations in transfection efficiencies.

[2] = test system: mda-7 gene; assay: Nuclear run-on assay of mda-7 transcription; format: cell-based, human; settings: HO-1 cells, 24 h treatment, versus uninduced control
Protocol: (FIG. 2A) Nuclear run-on assays using nuclei isolated from Control or 24 h after treatment with IFN-β, MEZ or IFN-β+MEZ, the same concentrations as indicated in FIG. 1. GAPDH was used as an internal control. In vitro transcription assays were performed as previously described (Jiang et al., 1993). […] GAPDH was used as an internal loading control.
Transcription of the housekeeping gene, GAPDH served as an internal control.

[3] = test system: mda-7 mRNA; assay: RT-PCR followed by Southern blotting of mda-7 mRNA; format: cell-based, human; settings: HO-1 cells, compared to IFN-β+MEZ treated samples
Protocol: (FIG. 2B) Mda-7 message expression detected by Northern blotting and RT-PCR followed by Southern blotting. Total RNA from control (FIG. 2C) HO-1 cells and cells treated with IFN-β (I), MEZ (M) or IFN-β+MEZ (I+M) were analyzed by Northern blotting or RT-PCR/Southern using radiolabeled mda-7 cDNA as a probe as previously described (Jiang et al., 1993, 1995a; Kang et al., 1998a). GAPDH was used as an internal loading control.
To determine the possible presence of trace amounts of mda-7 mRNA in response to differentiation inducer treatment (IFN-β) and in the absence of treatment, a more sensitive method of message detection was employed, i.e., RT-PCR followed by Southern blotting.
Nucleic acid analysed. Total cytoplasmic RNA was prepared by the guanidinium-HCL extraction method followed by Northern blotting or RT-PCR analysis using previously published protocols (12, 18, 22). For Northern blots, 15 mg of RNA was denatured with glyoxal/DMSO, electrophoresed on 1% agarose gels, transferred to nylon membranes and hybridized with ^32P-dCTP labeled cDNA probes.

[4] = test system: mda-7-ARE-3'-UTR; assay: Luciferase-mda-7-ARE-3'UTR reporter assay; format: cell-based, human; settings: HO-1 cells
Source text: Posttranscriptional regulation of Luciferase mRNA as a consequence of mda-7-3′ UTR addition at its 3′-end. The Luciferase expression plasmid having SV40 polyadenylation signal sequence was replaced with the 3′-UTR region (approximately 900 bp) of mda-7. […] (FIG. 3A) Mda-7 3′-UTR mediated destabilization of luciferase mRNA was computed as fold induction of luciferase enzyme activity, which is seen only when stable luciferase mRNA, is synthesized. […] (FIG. 3B) Kinetic analysis of luciferase activity (as fold-induction) of the mda-7 promoter-luciferase-ARE-3′-UTR construct as a function of time of treatment with IFN-β+MEZ. Luciferase assays were performed as described by Gopalkrishnan et al. (1999) and briefly in the legend to FIGS. 1A-1B.
To examine the posttranscriptional regulation of mda-7 mRNA specifically during terminal differentiation of human melanoma cells, we constructed a Luciferease-mda-7-ARE-3′UTR plasmid under transcriptional control of either the FL-mda-7 promoter (FIG. 3) or the SV40 large T-antigen promoter. These plasmids were co-transfected into HO-1 cells and treated with differentiation inducers.

[5] = test system: C/EBP-β/LAP; assay: Western blotting of C/EBP-β/LAP protein in whole cell lysates; format: cell-based, human; settings: HO-1 cells, 24 h treatment
Protocol: (§1) FIGS. 8A-8C. Protein expression pattern of the transcription factors cJun/AP-1 and C/EBP-β and their ability to transactivat the mda-7 promoter. [FIG. 8A] Whole cell lysates from HO-1 control cells (C) and those treated with IFN-β (I), MEZ (M), IFN-β+MEZ (I+M) or TPA were resolved on a 4-20% SDS-PAGE gel and transblotted onto nitrocellulose filters. Immobilized proteins were then analyzed by Western blotting using commercially available cJun/AP-1 and C/EBP-β specific antibodies. […] Equal protein loading was determined by Coomassie blue staining of a parallel gel. [FIG. 8B] […]
(§2) Electrophoresis and immunoblotting. Equal amounts of whole cell proteins were analyzed by sodium dodecylsulfate-polyacrylamide gel electrophoresis (SDS-PAGE, 4-20% gradient gel; Novex) and electrotransferred onto ECL grade nitrocellulose (Amersham) as described previously (24). […]
(§3) AP-1 and C/EBP families of transcription factors are responsible for mda-7 promoter activation during human melanoma differentiation. […] Western blot analyses of whole cell lysates (equal protein loading was verified by Coomassie blue staining of a parallel gel, data not shown) from uninduced HO1 cells and cultures treated for 24 h with IFN-β, MEZ, IFN-β+MEZ or TPA were analyzed using anti-cJun/AP-1, anti-C/EBP-α or anti-C/EBP-β antibodies. […]

[6] = test system: mda-7 mRNA; assay: Northern blotting of mda-7 message; format: cell-based, human; settings: HO-1 cells, 24 h treatment
Source text: FIGS. 5A-5B. Message and protein expression analyses of mda-7 during melanoma terminal differentiation. (FIG. 5A) Northern blotting analysis of mda-7 message expression. Total RNA was isolated from HO-1 cells that were uninduced (C) or treated with IFN-β (I), MEZ (M) or IFN-β+MEZ (I+M) and analyzed by Northern blotting. 28S RNA was used as a loading control. Mda-7 message was detected using a random primed [^32P]-labeled mda-7 cDNA probe (18). (FIG. 5B) Indirect immunofluorescence visualization of MDA-7 protein subcellular localization. Both uninduced HO-i cells (Control; A and S) and terminally differentiated (48 h IFN-β+MEZ treated; C and D) were immuno-labeled using anti-MDA-7 specific monoclonal antibody. Anti-mouse secondary antibodies conjugated with Rhodamine enabled visualization of MDA-7 protein localization (A and C) and the DNA specific dye, DAPI was used to stain nuclei (B and D). With the exception of a cell undergoing mitosis no other cells reveal MDA-7 staining in control cultures (A and B). Terminally differentiated cells in (C) and (D) show strong punctate MDA-7 staining within the nucleus (See enlargement below (C) and (D) of a single nucleus). The arrow points to the punctate bodies to which MDA-7 localizes in the nucleus and their coincidence with DAPI bright staining regions.
Nucleic acid analysed. […]

[7] = test system: HO-1 cells; settings: cited from earlier work
[8] = test system: cJun/AP-1; assay: Western blotting of cJun/AP-1 protein in whole cell lysates; format: cell-based, human; settings: HO-1 cells, 24 h treatment, compared to uninduced controls
Protocol: as §1, §2, §3

[9] = test system: mda-7 mRNA; assay: Effect of cycloheximide on mda-7 mRNA stability, Northern blotting; format: cell-based, human; settings: MEZ treated HO-1 cells, cycloheximide 10 μg/ml for 3 h; lesser extent in control and IFN-β treated samples
Protocol: (§4) FIGS. 4A-4B. Effect of actinomycin D and cycloheximide on th half-life and stability of the mda-7 message. […] Northern blotting analyses were performed on total RNA isolated from control (C)HO-1 or cells treated with IFN-β (I), MEZ (M) or IFN-β+MEZ (I+M), at the same concentrations as in FIG. 1. Twenty-four h after exposure to the inducing agent(s), acitnomycin D (Act.D, 5 μg/ml) was added (+Act.D) for 30 minutes (30′) or one h (1′). Mda-7 expression was detected using a radiolabeled mda-7 cDNA probe as previously described (Jiang et al., 1995a). rRNA visualized by ethidium bromide was used as a loading control. (FIG. 4B) Effect of cycloheximide treatment on mda-7 mRNA stability relative to p21/mda-6 Untreated control (C)HO-1 cells or cells treated for 24 h with IFN-β (I), MEZ (M) or IFN-β+MEZ at the same concentrations as in FIGS. 1A-1B. After 24 h induction, cells were treated with or without cycloheximide (10 μg/ml) for 3 h and total RNA was isolated and analyzed by Northern blotting. Mda-7 expression was detected using a radiolabeled mda-7 cDNA probe (Jiang et al., 1995a). The blot was allowed to decay for 3 months, and then reprobed using a radiolabeled probe against a p21/mda-6 cDNA (Jiang et al., 1995b). rRNA visualized by ethidium bromide was used as a loading control. […]

[10] = test system: p21/Waf1/Cip1/mda-6; assay: Effect of cycloheximide on p21/mda-6 message, Northern blotting; format: cell-based, human; settings: HO-1 cells, cycloheximide 10 μg/ml for 3 h
Protocol: as §4

[11] = test system: mda-7 promoter; assay: mda-7 promoter activity on IL-6 treatment; format: cell-based; settings: cells treated with IL-6, unpublished data
Protocol: It appears that C/EBP-B/LAP binding sites at a distance from the TATA element are responsible for mda-7 expression in terminally differentiated human melanoma cells. Another line of evidence supporting the involvement of the C/EBP gene family in melanoma terminal differentiation is apparent from increased levels of C/EBP-B/LAP protein in HO-1 cells as early as 24 h after treatment with IFN-β+MEZ when compared to cells treated with IFN-β, MEZ or TPA. The transcription factor C/EBP is a heat-stable, sequence-specific DNA-binding protein first purified from rat liver nuclei (39). C/EBP regulates gene expression in a variety of tissues including liver, adipose, lung and intestine (40). This transcription factor appears to function exclusively in differentiated and growth-arrested cells (40). […] It is the ratio of LIP/LAP that is important in C/EBP-mediated gene expression. In the case of terminally differentiated HO-1 melanoma cells, we were unable to detect any LIP protein. The present studies provide evidence that the C/EBP gene family members, C/EBP-B/LAP in particular, play a major role during melanoma terminal differentiation. C/EBP-a and -B can both directly induce the mda-7 promoter as shown by ectopic expression analyses. […]

With `C=C(C)[C@@]12O[C@@]3(c4ccccc4)O[C@@H]1[C@@H]1[C@@H]4O[C@]4(CO)[C@@H](O)[C@]4(O)C(=O)C(C)=C[C@H]4[C@@]1(O3)[C@H](C)[C@H]2OC(=O)/C=C/C=C/c1ccccc1` [MEZ, mezerein] the “activity of the FL-mda-7 promoter (luciferase)” value [1] was “only small changes”, the “rate of mda-7 transcription” value [2] was “the same” and the “mda-7 mRNA by RT-PCR” value [3] was “lower levels”. The “luciferase enzyme activity of Luciferase-mda-7-ARE-3'UTR construct” value [4] was “minimal”, the “level of C/EBP-β/LAP protein” value [5] was “approximately 3 fold” and the “mda-7 message by Northern blotting” value [6] was “Quantitatively less”. For the same compound, the “growth suppression and differentiation” value [7] was “reversible”.
With `CCCCCCCCCCCCCC(=O)O[C@@H]1[C@@H](C)[C@@]2(O)[C@@H](C=C(CO)C[C@]3(O)C(=O)C(C)=C[C@@H]23)[C@@H]2C(C)(C)[C@]12OC(C)=O` [TPA] the “level of cJun/AP-1 protein” value [8] was “only marginally increased”.
For `C[C@@H]1C[C@@H]([C@H](O)CC2CC(=O)NC(=O)C2)C(=O)[C@@H](C)C1` [cycloheximide], the “accumulation of mda-7 mRNA” value [9] was “visibly increased” and the p21/mda-6 message accumulation [10] was “does not show message accumulation”.
For IL-6: potent inducer of NF-IL6, the mda-7 promoter activity [11] was “induced”.
